We go through one substance from US11033559B2, “Leukocyte infiltration promoting agent and antitumor immunostimulatory agent” (OSAKA UNIVERSITY, priority 2015, dated 2021).

Holding throughout (assay type): in vivo
For test [1], the system named is LLC tumor in mice. The experiment in a line: Changes in localization of immune cells in tumor (CD31, CD4, CD8 immunostaining). The note with it: tumor sections of Reference Example 1, LLC-bearing mice, 3 mg/kg i.p. for five days. On the procedure: LPA was administered to tumor-bearing mice generated by subcutaneous inoculation of a mouse cancer cell line, and changes in the localization of immune cells in the tumor were examined.
The tumor sections prepared in Reference Example 1 were immunostained with an anti-CD4 antibody and an anti-CD8 antibody. As a primary antibody, Purified Hamster Anti-PECAM-1 Antibody (Millipore), which is an anti-mouse CD31 antibody, PE-labeled Anti-mouse CD4 Antibody (Pharmingen) or FITC-labeled Anti-mouse CD8 Antibody (Pharmingen) was used. As a secondary antibody, Alexa Fluor 647-conjugated Anti-Armenian Hamster IgG was used. The immunostaining was performed in the same procedure as in Reference Example 1. The immunostained sections were observed and photographed under a confocal laser microscope (Leica).

For test [2], the system named is B16-BL6 mouse melanoma cell line. The experiment in a line: Tumor growth inhibition, subcutaneous tumor formed from melanoma cells. The note with it: B16-BL6-bearing mice; LPA 3 mg/kg i.p. once daily for seven days; 5-FU 100 mg/kg i.p. once weekly, 2 times. As to the method:
(§1) LLC cells (1×10^6 cells in 100 μL PBS per animal) were subcutaneously injected into C57BL/6 NCrSlc mice aged 8 weeks (females) in the same manner as in Reference Example 1. An LPA solution for administration was prepared in the same manner as in Reference Example 1. 5-FU (Kyowa Hakko Kirin Co., Ltd.) was used as an anticancer drug. 5-FU was prepared as a solution in physiological saline (Otsuka Pharmaceutical Co., Ltd.). On day 7 post-inoculation, LLC-bearing mice that had developed a tumor with a volume of 30 to 50 mm^3 were selected and subjected to the experiment. The mice were assigned to three groups: a control group, a 5-FU group and an LPA group (n=3 per group). After grouping, LPA (3 mg/kg/100 μL), 5-FU (100 mg/kg/100 μL) or PBS (100 μL) was intraperitoneally administered to the mice. The administration of LPA or PBS was performed once daily for consecutive seven days. The administration of 5-FU was performed once weekly, 2 times in total (day 7 and day 14 post-inoculation). Tumor size was measured over time after the start of the administration. Tumor volume was calculated by the following formula: length×width×height×0.5.
The B16-BL6 mouse melanoma cell line was used. B16-BL6 cells (1×10^6 cells in […] PBS per animal) were subcutaneously injected into C57BL/6 NCrSlc mice aged 8 weeks (females). […]

Test [3] has as its system LLC tumor in mice. Put plainly: Drug (doxorubicin) delivery from tumor blood vessels to tumor tissues after LPA administration. Particulars: LLC-bearing mice, LPA 3 mg/kg i.p., doxorubicin 1.5 mg/kg via tail vein 24 hours later, tumors harvested at 20 minutes. From the text:
As is commonly known, low blood flow and vascular hyperpermeability are the hallmarks of tumors. These cause an increase in tumor interstitial fluid pressure, leading to no difference in osmotic pressure between the tumor parenchyma and the blood vessels. This condition is a great obstacle to substance penetration from the vascular lumen to tumor tissues. Based on the above results showing that LPA administration induces a dense network formation of tumor blood vessels with a smooth luminal surface, it was hypothesized that LPA administration would improve drug penetration from tumor blood vessels. To examine drug penetration into tumors after LPA administration, the following experiments were conducted.
LLC cells were subcutaneously inoculated into C57BL/6 NCrSlc mice aged 8 weeks (females, SLC, Inc.) in the same manner as in Reference Example 1. An LPA solution for administration was prepared in the same manner as in Reference Example 1. On day 11 post-inoculation, LLC-bearing mice that had developed a tumor with a volume of 100 to 120 mm^3 were selected. The mice were divided into two groups: a control group and an LPA group (n=3 per group). After grouping, LPA (3 mg/kg/100 μL) or PBS (100 μL) was intraperitoneally administered to the mice. […] Doxorubicin is a fluorescent anticancer drug that can be detected at an excitation wavelength of 480 nm and a measurement wavelength of 575 nm. […]

For the next test, the system named is LLC cells. The experiment in a line: Tumor growth inhibition, subcutaneous tumor formed from LLC cells. The note with it: LLC-bearing mice; LPA 3 mg/kg i.p. once daily for seven days; 5-FU 100 mg/kg i.p. once weekly, 2 times. On the procedure:
as §1

Take lysophosphatidic acid [LPA]: in the test on LLC tumor in mice [1], the “continuity of tumor blood vessels (anti-CD31 staining)” value is “blood vessels were continuous”, the “localization of CD4-positive cells in the tumor” value was “CD4-positive cells were present even in the central part of the tumor” and the “localization of CD8-positive cells in the tumor” value is given as “CD8-positive cells were present in the whole tumor region”. Besides, in test [2], the “inhibitory effect on growth of the tumor formed from melanoma cells” value is “comparable to that of 5-FU”. Further, the “penetration of doxorubicin into tumors” value in the test with LLC tumor in mice [3] was “delivery of doxorubicin from tumor blood vessels to the deep part of the tumor was observed”. Also, the “inhibition of tumor growth (tumor volume) versus control group” value in the test with LLC cells is “albeit to a slightly lesser extent, the LPA group also showed inhibition of tumor growth”.
